Measurements reported in US9873680B2 (Gilead Sciences, Inc., priority 2014, dated 2018).

How the values were obtained:
HIV-IIIb = experiment: Test A: Antiviral Assay in MT4 Cells; format: cell-based, HIV-1; conditions: Human immunodeficiency virus 1, MT4, 120 h; 0.2 μM drug concentration; MT-4 cells infected with HIV-IIIb, 5 days; values normalized to 100%; average over time; read-out: % inhibition at 0.2 μM (percent inhibition of virus-induced cell killing)
How it was run: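 Readout was CellTiter-Glo luminescence after 10 min room-temperature lysis, taken 5 days after plating at 37 °C. The 2000 MT-4 cells per well, mixed 1 h beforehand with HIV-IIIb (m.o.i. 0.003), went straight onto the diluted compound.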

[1] = Test B: Cytotoxicity Assay; format: cell-based; conditions: human, uninfected MT-4 cells, CellTiter-Glo
Procedure: Test B: Cytotoxicity Assay Compound cytotoxicity and the corresponding CC50 values was determined using the same protocol as described in the antiviral assay (Test A) except that uninfected cells were used.

Row | Structure (SMILES) | inhibition at 0.2 µM (HIV-IIIb) [%] | CC50 at 5 days [1] [µM]
1 | CN1CC(NC(C)(C)C#Cc2ccc(-c3ccc(Cl)c4c(NS(C)(=O)=O)nn(C)c34)c([C@H](Cc3cc(F)cc(F)c3)NC(=O)Cn3nc(C(F)(F)F)c4c3C(F)(F)[C@@H]3C[C@H]43)n2)C1 [Compound 42, N—((S)-1-(3-(4-chloro-1-methyl-3-(methylsulfonamido)-1H-indazol-7-yl)-6-(3-methyl-3-((1-methylazetidin-3-yl)amino)but-1-yn-1-yl)pyridin-2-yl)-2-(3,5-difluorophenyl)ethyl)-2-((3bS,4aR)-5,5-difluoro-3-(trifluoromethyl)-3b,4,4a,5-tetrahydro-1H-cyclopropa[3,4]cyclopenta[1,2-c]pyrazol-1-yl)acetamide] | 90 | 2.77
2 | Cn1nc(NS(C)(=O)=O)c2c(Cl)ccc(-c3ccc(C#CC4CCCN4)nc3[C@H](Cc3cc(F)cc(F)c3)NC(=O)Cn3nc(C(F)(F)F)c4c3C(F)(F)[C@@H]3C[C@H]43)c21 (stereo partly drawn) [Compound 43H, N-((1S)-1-(3-(4-chloro-1-methyl-3-(methylsulfonamido)-1H-indazol-7-yl)-6-(pyrrolidin-2-ylethynyl)pyridin-2-yl)-2-(3,5-difluorophenyl)ethyl)-2-((3bS,4aR)-5,5-difluoro-3-(trifluoromethyl)-3b,4,4a,5-tetrahydro-1H-cyclopropa[3,4]cyclopenta[1,2-c]pyrazol-1-yl)acetamide] | 99 | 4.34
3 | Cn1nc(NS(C)(=O)=O)c2c(Cl)ccc(-c3ccc(C#CC4CCNC4)nc3[C@H](Cc3cc(F)cc(F)c3)NC(=O)Cn3nc(C(F)(F)F)c4c3C(F)(F)[C@@H]3C[C@H]43)c21 (stereo partly drawn) [Compound 44, N-((1S)-1-(3-(4-chloro-1-methyl-3-(methylsulfonamido)-1H-indazol-7-yl)-6-(pyrrolidin-3-ylethynyl)pyridin-2-yl)-2-(3,5-difluorophenyl)ethyl)-2-((3bS,4aR)-5,5-difluoro-3-(trifluoromethyl)-3b,4,4a,5-tetrahydro-1H-cyclopropa[3,4]cyclopenta[1,2-c]pyrazol-1-yl)acetamide] | 100 | 5.64
4 | Cn1nc(NS(C)(=O)=O)c2c(Cl)ccc(-c3ccc(C#CC4(CO)CCCC4)nc3[C@H](Cc3cc(F)cc(F)c3)NC(=O)Cn3nc(C(F)(F)F)c4c3C(F)(F)[C@@H]3C[C@H]43)c21 [Compound 45B, N—((S)-1-(3-(4-chloro-1-methyl-3-(methylsulfonamido)-1H-indazol-7-yl)-6-((1-(hydroxymethyl)cyclopentyl)ethynyl)pyridin-2-yl)-2-(3,5-difluorophenyl)ethyl)-2-((3bS,4aR)-5,5-difluoro-3-(trifluoromethyl)-3b,4,4a,5-tetrahydro-1H-cyclopropa[3,4]cyclopenta[1,2-c]pyrazol-1-yl)acetamide] | 93 | 7.35
5 | Cn1nc(NS(C)(=O)=O)c2c(Cl)ccc(-c3ccc(C#CC4(O)CCOC4)nc3[C@H](Cc3cc(F)cc(F)c3)NC(=O)Cn3nc(C(F)(F)F)c4c3C(F)(F)[C@@H]3C[C@H]43)c21 (stereo partly drawn) [Compound 46, N-((1S)-1-(3-(4-chloro-1-methyl-3-(methylsulfonamido)-1H-indazol-7-yl)-6-((3-hydroxytetrahydrofuran-3-yl)ethynyl)pyridin-2-yl)-2-(3,5-difluorophenyl)ethyl)-2-((3bS,4aR)-5,5-difluoro-3-(trifluoromethyl)-3b,4,4a,5-tetrahydro-1H-cyclopropa[3,4]cyclopenta[1,2-c]pyrazol-1-yl)acetamide] | 96 | 17.6
6 | CN1CCN(CC#Cc2ccc(-c3ccc(Cl)c4c(NS(C)(=O)=O)nn(C)c34)c([C@H](Cc3cc(F)cc(F)c3)NC(=O)Cn3nc(C(F)(F)F)c4c3C(F)(F)[C@@H]3C[C@H]43)n2)CC1 [Compound 47, N—((S)-1-(3-(4-chloro-1-methyl-3-(methylsulfonamido)-1H-indazol-7-yl)-6-(3-(4-methylpiperazin-1-yl)prop-1-yn-1-yl)pyridin-2-yl)-2-(3,5-difluorophenyl)ethyl)-2-((3bS,4aR)-5,5-difluoro-3-(trifluoromethyl)-3b,4,4a,5-tetrahydro-1H-cyclopropa[3,4]cyclopenta[1,2-c]pyrazol-1-yl)acetamide] | 94 | 7.97
7 | CC1CC(O)(C#Cc2ccc(-c3ccc(Cl)c4c(NS(C)(=O)=O)nn(C)c34)c([C@H](Cc3cc(F)cc(F)c3)NC(=O)Cn3nc(C(F)(F)F)c4c3C(F)(F)[C@@H]3C[C@H]43)n2)CC(C)O1 (stereo partly drawn) [Compound 48C, N-((1S)-1-(3-(4-chloro-1-methyl-3-(methylsulfonamido)-1H-indazol-7-yl)-6-((4-hydroxy-2,6-dimethyltetrahydro-2H-pyran-4-yl)ethynyl)pyridin-2-yl)-2-(3,5-difluorophenyl)ethyl)-2-((3bS,4aR)-5,5-difluoro-3-(trifluoromethyl)-3b,4,4a,5-tetrahydro-1H-cyclopropa[3,4]cyclopenta[1,2-c]pyrazol-1-yl)acetamide] | 92 | 7.27
8 | Cn1nc(NS(C)(=O)=O)c2c(Cl)ccc(-c3ccc(C#CC4COCCN4)nc3[C@H](Cc3cc(F)cc(F)c3)NC(=O)Cn3nc(C(F)(F)F)c4c3C(F)(F)[C@@H]3C[C@H]43)c21 (stereo partly drawn) [Compound 49, N-((1S)-1-(3-(4-chloro-1-methyl-3-(methylsulfonamido)-1H-indazol-7-yl)-6-(morpholin-3-ylethynyl)pyridin-2-yl)-2-(3,5-difluorophenyl)ethyl)-2-((3bS,4aR)-5,5-difluoro-3-(trifluoromethyl)-3b,4,4a,5-tetrahydro-1 I-cyclopropa[3,4]cyclopenta[1,2-c]pyrazol-1-yl)acetamide] | 92 | 20.6
9 | Cn1nc(NS(C)(=O)=O)c2c(Cl)ccc(-c3ccc(C#CC4(O)CO[C@H]5OCC[C@H]54)nc3[C@H](Cc3cc(F)cc(F)c3)NC(=O)Cn3nc(C(F)(F)F)c4c3C(F)(F)[C@@H]3C[C@H]43)c21 (stereo partly drawn) [Compound 50B, N-((1S)-1-(3-(4-chloro-1-methyl-3-(methylsulfonamido)-1H-indazol-7-yl)-6-(((3aS,6aR)-3-hydroxyhexahydrofuro[2,3-b]furan-3-yl)ethynyl)pyridin-2-yl)-2-(3,5-difluorophenyl)ethyl)-2-((3bS,4aR)-5,5-difluoro-3-(trifluoromethyl)-3b,4,4a,5-tetrahydro-1H-cyclopropa[3,4]cyclopenta[1,2-c]pyrazol-1-yl)acetamide] | 92 | 10
10 | Cn1nc(NS(C)(=O)=O)c2c(Cl)ccc(-c3ccc(C#CC4(O)CC5(COC5)C4)nc3[C@H](Cc3cc(F)cc(F)c3)NC(=O)Cn3nc(C(F)(F)F)c4c3C(F)(F)[C@@H]3C[C@H]43)c21 [Compound 51B, N—((S)-1-(3-(4-chloro-1-methyl-3-(methylsulfonamido)-1H-indazol-7-yl)-6-((6-hydroxy-2-oxaspiro[3.3]heptan-6-yl)ethynyl)pyridin-2-yl)-2-(3,5-difluorophenyl)ethyl)-2-((3bS,4aR)-5,5-difluoro-3-(trifluoromethyl)-3b,4,4a,5-tetrahydro-1H-cyclopropa[3,4]cyclopenta[1,2-c]pyrazol-1-yl)acetamide] | 89 | 19.8
11 | Cn1nc(NS(C)(=O)=O)c2c(Cl)ccc(-c3ccc(C#CC4(O)CO[C@H]5OCC[C@H]54)nc3[C@H](Cc3cc(F)cc(F)c3)NC(=O)Cn3nc(C(F)F)c4c3C(F)(F)[C@@H]3C[C@H]43)c21 (stereo partly drawn) [Compound 52, N-((1S)-1-(3-(4-chloro-1-methyl-3-(methylsulfonamido)-1H-indazol-7-yl)-6-(((3aS,6aR)-3-hydroxyhexahydrofuro[2,3-b]furan-3-yl)ethynyl)pyridin-2-yl)-2-(3,5-difluorophenyl)ethyl)-2-((3bS,4aR)-3-(difluoromethyl)-5,5-difluoro-3b,4,4a,5-tetrahydro-1H-cyclopropa[3,4]cyclopenta[1,2-c]pyrazol-1-yl)acetamide] | 96 | 17.1
12 | Cn1nc(NS(C)(=O)=O)c2c(Cl)ccc(-c3ccc(C#CC4CNCCO4)nc3[C@H](Cc3cc(F)cc(F)c3)NC(=O)Cn3nc(C(F)(F)F)c4c3C(F)(F)[C@@H]3C[C@H]43)c21 (stereo partly drawn) [Compound 53B, N-((1S)-1-(3-(4-chloro-1-methyl-3-(methylsulfonamido)-1H-indazol-7-yl)-6-(morpholin-2-ylethynyl)pyridin-2-yl)-2-(3,5-difluorophenyl)ethyl)-2-((3bS,4aR)-5,5-difluoro-3-(trifluoromethyl)-3b,4,4a,5-tetrahydro-1H-cyclopropa[3,4]cyclopenta[1,2-c]pyrazol-1-yl)acetamide] | 100 | 6.81
13 | Cn1nc(NS(C)(=O)=O)c2c(Cl)ccc(-c3ccc(C#CC(C)(O)c4ccco4)nc3[C@H](Cc3cc(F)cc(F)c3)NC(=O)Cn3nc(C(F)(F)F)c4c3C(F)(F)[C@@H]3C[C@H]43)c21 (stereo partly drawn) [Compound 54, N-((1S)-1-(3-(4-chloro-1-methyl-3-(methylsulfonamido)-1H-indazol-7-yl)-6-(3-(furan-2-yl)-3-hydroxybut-1-yn-1-yl)pyridin-2-yl)-2-(3,5-difluorophenyl)ethyl)-2-((3bS,4aR)-5,5-difluoro-3-(trifluoromethyl)-3b,4,4a,5-tetrahydro-1H-cyclopropa[3,4]cyclopenta[1,2-c]pyrazol-1-yl)acetamide] | 100 | 11.6
14 | CC(=O)N1CCCC1C#Cc1ccc(-c2ccc(Cl)c3c(NS(C)(=O)=O)nn(C)c23)c([C@H](Cc2cc(F)cc(F)c2)NC(=O)Cn2nc(C(F)(F)F)c3c2C(F)(F)[C@@H]2C[C@H]32)n1 (stereo partly drawn) [Compound 55, N-((1S)-1-(6-((1-acetylpyrrolidin-2-yl)ethynyl)-3-(4-chloro-1-methyl-3-(methylsulfonamido)-1H-indazol-7-yl)pyridin-2-yl)-2-(3,5-difluorophenyl)ethyl)-2-((3bS,4aR)-5,5-difluoro-3-(trifluoromethyl)-3b,4,4a,5-tetrahydro-1H-cyclopropa[3,4]cyclopenta[1,2-c]pyrazol-1-yl)acetamide] | 88 | 9.94
